41 compounds from patent US20260285857A1, “BICYCLIC AND HETEROCYCLIC AMIDE COMPOUNDS” (priority 2024, published 2026) can be followed below.

For the experiment, the system named is immunoglobulin light chain protein WIL-FL T46L. Description: Differential scanning fluorimetry (thermal shift) assay. The format is binding. For orientation: DSF heats the sample and reads unfolding from a dye or from intrinsic fluorescence.
The mark [1] stands for this setting: Table A, temperature shift [Tm]compound-[Tm]vehicle, recombinant WIL-FL T46L.

Read-outs that look alike come from different tables or passages of the source.

Turning to `Cc1cc(N2CC3(CC[C@H]3c3ccccc3)C2)cn2nc(C(=O)N3CC[C@@]4(CCN(c5cccc(C(=O)O)n5)C4)C3)nc12` [Compound 24A, Lithium 6-((R)-7-(8-methyl-6-((S)-5-phenyl-2-azaspiro[3.3]heptan-2-yl)-[1,2,4]triazolo[1,5-a]pyridine-2-carbonyl)-2,7-diazaspiro[4.4]nonan-2-yl)picolinate], the DSF result under setting [1] is “***** (>2.5° C.=*****)”.

On to `Cc1cc(N2CC3(CC[C@@H]3c3ccccc3)C2)cn2nc(C(=O)N3CC[C@@]4(CCN(c5cccc(C(=O)[O-])n5)C4)C3)nc12.[Li+]` [Compound 24B, lithium 6-((R)-7-(8-methyl-6-((R)-5-phenyl-2-azaspiro[3.3]heptan-2-yl)-[1,2,4]triazolo[1,5-a]pyridine-2-carbonyl)-2,7-diazaspiro[4.4]nonan-2-yl)picolinate], for which the DSF result under setting [1] is given as “***** (>2.5° C.=*****)”.

With `Cc1ncn(C2(C)CCN(c3cc(C)c4nc(C(=O)N5C[C@@H]6CN(c7cccc(C(=O)O)n7)C[C@@H]6C5)nn4c3)C2=O)n1` (stereo partly drawn) [Compound 25, 6-((3aR,6aS)-5-(8-methyl-6-(3-methyl-3-(3-methyl-1H-1,2,4-triazol-1-yl)-2-oxopyrrolidin-1-yl)-[1,2,4]triazolo[1,5-a]pyridine-2-carbonyl)hexahydropyrrolo[3,4-c]pyrrol-2(1H)-yl)picolinic acid], under setting [1], the DSF result was “* (0-0.5° C.=*)”.

With `Cc1cc(N2CC[C@](C)(c3ccccc3)C2)cn2nc(S(=O)(=O)NC3CNC3)nc12` [Compound 27, N-(azetidin-3-yl)-8-methyl-6-[(3R)-3-methyl-3-phenyl-pyrrolidin-1-yl]-[1,2,4]triazolo[1,5-a]pyridine-2-sulfonamide], the DSF result under setting [1] is listed as “***** (>2.5° C.=*****)”.

Consider `Cc1cc(N2CC[C@](c3ccccc3)(C(F)F)C2)cn2nc(C(=O)NCC(C)(C)O)nc12` [Compound 28, 6-[(3R)-3-(difluoromethyl)-3-phenyl-pyrrolidin-1-yl]-N-(2-hydroxy-2-methyl-propyl)-8-methyl-[1,2,4]triazolo[1,5-a]pyridine-2-carboxamide], for which the DSF entry under setting [1] is reported as “**** (>1.5-2.5° C.=****)”.

Take `Cc1cc(N2CC[C@](C)(c3ccccc3)C2)cn2nc(C(=O)NC3CC4(CCC4N4CC5C(C4)C5C(=O)O)C3)nc12` (stereo partly drawn) [Compound 31, 3-[2-[[8-methyl-6-[(3R)-3-methyl-3-phenyl-pyrrolidin-1-yl]-[1,2,4]triazolo[1,5-a]pyridine-2-carbonyl]amino]spiro[3.3]heptan-7-yl]-3-azabicyclo[3.1.0]hexane-6-carboxylic acid]: the DSF result under setting [1] is “***** (>2.5° C.=*****)”.

`CNC(=O)c1nc2c(C)cc(N3CC[C@](C)(c4cccc(F)c4)C3)cn2n1` [Compound 32]: the DSF entry was “***** (key: 0-0.5° C.=*; >0.5-1 °C =**; >1-1.5° C.=***; >1.5-2.5° C.=****; >2.5° C.=*****)”.

Consider `CCC1(c2ccccc2)CN(c2cc(C)c3nc(C(=O)NC)nn3c2)C1` [Compound 33, 6-(3-ethyl-3-phenyl-azetidin-1-yl)-N, 8-dimethyl-[1,2,4]triazolo[1,5-a]pyridine-2-carboxamide], for which the DSF entry under setting [1] is “***** (>2.5° C.=*****)”.

With `Cc1cc(N2CCC(C)(c3ccccn3)C2)cn2nc(C(=O)NC3CCN(c4cccc(C(=O)O)n4)CC3)nc12` (centres unmarked) [Compound 34, 6-[4-[[8-methyl-6-[3-methyl-3-(2-pyridyl)pyrrolidin-1-yl]-[1,2,4]triazolo[1,5-a]pyridine-2-carbonyl]amino]-1-piperidyl]pyridine-2-carboxylic acid], the DSF entry under setting [1] is on record as “**** (>1.5-2.5° C.=****)”.

Consider `Cc1cc(N2CCC(C)(c3nnn(C)n3)C2)cn2nc(C(=O)N3C[C@@H]4CN(c5cccc(C(=O)O)n5)C[C@@H]4C3)nc12` (some centres unmarked) [Compound 35, 6-[5-[8-methyl-6-[3-methyl-3-(2-methyltetrazol-5-yl)pyrrolidin-1-yl]-[1,2,4]triazolo[1,5-a]pyridine-2-carbonyl]-1,3,3a, 4,6,6a-hexahydropyrrolo[3,4-c]pyrrol-2-yl]pyridine-2-carboxylic acid], for which, under setting [1], the DSF result is recorded as “*** (>1-1.5° C.=***)”.

For the compound `Cc1cc(N2CC[C@](C)(c3ccc(Cl)c(Cl)c3)C2)cn2nc(C(=O)N3CC[C@@]4(CCN(c5cccc(C(=O)O)n5)C4)C3)nc12` [Compound 37, 6-[(5R)-2-[6-[(3R)-3-(3,4-dichlorophenyl)-3-methyl-pyrrolidin-1-yl]-8-methyl-[1,2,4]triazolo[1,5-a]pyridine-2-carbonyl]-2,7-diazaspiro[4.4]nonan-7-yl]pyridine-2-carboxylic acid], under setting [1], the DSF result is listed as “***** (>2.5° C.=*****)”.

On to `COC(=O)c1cccc(N2C[C@H]3CN(C(=S)c4nc5c(C)cc(N6CCC(C)(c7nnc(C)s7)C6)cn5n4)C[C@H]3C2)n1` (some centres unmarked) [Compound 38, methyl 6-[5-[8-methyl-6-[3-methyl-3-(5-methyl-1,3,4-thiadiazol-2-yl)pyrrolidin-1-yl]-[1,2,4]triazolo[1,5-a]pyridine-2-carbothioyl]-1,3,3a, 4,6,6a-hexahydropyrrolo[3,4-c]pyrrol-2-yl]pyridine-2-carboxylate], for which the DSF entry under setting [1] is “* (0-0.5° C.=*)”.

Regarding `Cc1cc(N2CC[C@](C)(c3ccccc3)C2)cc2oc(C(=O)N3CC4CN(c5cccc(C(=O)O)n5)CC4C3)nc12` (stereo partly drawn) [Compound 40, 6-(5-(4-methyl-6-((R)-3-methyl-3-phenylpyrrolidin-1-yl)benzo[d]oxazole-2-carbonyl)hexahydropyrrolo[3,4-c]pyrrol-2(1H)-yl)picolinic acid], the DSF result under setting [1] is recorded as “***** (>2.5° C.=*****)”.

For the compound `CNC(=O)C12COC(c3nc4c(C)cc(N5CC[C@](C)(c6ccccc6)C5)cn4n3)(C1)C2c1n[nH]c(C)n1` (some centres unmarked) [Compound 41], under setting [1], the DSF entry is reported as “***** (>2.5° C.=*****)”.

For `Cc1cc(N2CC[C@](C)(c3ccccc3)C2)cn2nc(C34CC(CO)(CO3)C4C(N)=O)nc12` (some centres unmarked) [Compound 42], under setting [1], the DSF entry is reported as “***** (>2.5° C.=*****)”.

In the case of `Cc1nc(C2C3(CO)COC2(c2nc4c(C)cc(N5CC[C@](C)(c6ccccc6)C5)cn4n2)C3)n[nH]1` (some centres unmarked) [Compound 43], the DSF entry under setting [1] is reported as “***** (>2.5° C.=*****)”.

Consider `Cc1cc(N2CC[C@](C)(c3ccccc3)C2)cn2nc(C34CC(CN)(CO3)C4C(N)=O)nc12` (some centres unmarked) [Compound 44], for which, under setting [1], the DSF result was “***** (>2.5° C.=*****)”.

In the case of `Cc1cc(N2CC[C@](C)(c3ccccc3)C2)cn2nc(C34CC(C(N)=O)(CO3)C4C(N)=O)nc12` (some centres unmarked) [Compound 45], under setting [1], the DSF entry is given as “***** (>2.5° C.=*****)”.

For `Cc1nc(C2C3(CN)COC2(c2nc4c(C)cc(N5CC[C@](C)(c6ccccc6)C5)cn4n2)C3)n[nH]1` (some centres unmarked) [Compound 46], the DSF entry under setting [1] is given as “***** (>2.5° C.=*****)”.

In the case of `Cc1cc(N2CC[C@](C)(c3ccccc3)C2)cn2nc(C34CC(=O)NC(N)(CO3)C4)nc12` (some centres unmarked) [Compound 47], under setting [1], the DSF result is reported as “***** (>2.5° C.=*****)”.

As for `Cc1nc(C2C3(N)COC2(c2nc4c(C)cc(N5CC[C@](C)(c6ccccc6)C5)cn4n2)C3)n[nH]1` (some centres unmarked) [Compound 48], the DSF entry under setting [1] was “***** (>2.5° C.=*****)”.

Regarding `Cc1cc(N2CC[C@](C)(c3ccccc3)C2)cn2nc(C34CC(CO)(CO3)C4C#N)nc12` (some centres unmarked) [Compound 49], the DSF result under setting [1] was “***** (>2.5° C.=*****)”.

Regarding `Cc1cc(N2CC[C@](C)(c3ccccc3)C2)cn2nc(C34CC(N(C)C)(CO3)C4CO)nc12` (some centres unmarked) [Compound 50], the DSF result under setting [1] is “***** (>2.5° C.=*****)”.

Take `CC[C@]1(c2ccccc2)CCN(c2cc(C)c3nc(C45CC(N)(CO4)C5)nn3c2)C1` [Compound 51]: the DSF entry under setting [1] is “** (>0.5-1 °C =**)”.

`CC(=O)NC12COC(c3nc4c(C)cc(N5CC[C@](C)(c6ccccc6)C5)cn4n3)(C1)C2` [Compound 52]: the DSF entry under setting [1] was “***** (>2.5° C.=*****)”.

With `Cc1cc(N2CC[C@](C)(c3ccccc3)C2)cn2nc(C34CCC(NC(=O)CC(C)(C)O)(C3)O4)nc12` (some centres unmarked) [Compound 53], the DSF entry under setting [1] is reported as “***** (>2.5° C.=*****)”.

For the compound `CCNC(=O)C12COC(c3nc4c(C)cc(N5CC[C@](C)(c6ccccc6)C5)cn4n3)(C1)C2` [Compound 54], under setting [1], the DSF entry is on record as “***** (>2.5° C.=*****)”.

As to `Cc1cc(N2CC[C@](C)(c3ccccc3)C2)cn2nc(C34CC(C(N)=O)(CO3)C4)nc12` [Compound 55], the DSF entry under setting [1] was “***** (>2.5° C.=*****)”.

Take `Cc1nnc(CNC23COC(c4nc5c(C)cc(N6CC[C@](C)(c7ccccc7)C6)cn5n4)(C2)C3)[nH]1` [Compound 56]: the DSF entry under setting [1] is “***** (>2.5° C.=*****)”.

On to `Cc1cc(OCC2(c3ccccc3)CC2)cn2nc(C34CC(N)(CO3)C4)nc12` [Compound 57], for which the DSF entry under setting [1] is “***** (>2.5° C.=*****)”.

As to `Cc1cc(N2CC[C@](C)(c3ccccc3)C2)cn2nc(C34CC(CN)(CO3)C4)nc12` [Compound 58], under setting [1], the DSF entry is given as “***** (>2.5° C.=*****)”.

For the compound `C[C@]1(c2ccccc2)CCN(c2cc(CO)c3nc(C45CC(N)(CO4)C5)nn3c2)C1` [Compound 59], the DSF result under setting [1] is reported as “***** (>2.5° C.=*****)”.

As for `Cc1cc(N2CC[C@](C)(c3ccccc3)C2)cn2nc(C34CC(CO)(CO3)C4)nc12` [Compound 60], under setting [1], the DSF result is “***** (>2.5° C.=*****)”.

As to `Cc1cc(OC[C@H](C)c2ccccc2)cn2nc(C34CC(N)(CO3)C4)nc12` [Compound 61], under setting [1], the DSF result is “**** (>1.5-2.5° C.=****)”.

With `Cc1cc(N2CC[C@](C)(c3ccccc3)C2)cn2nc(C34CC(NC(=O)Cn5ncnc5C)(CO3)C4)nc12` [Compound 62], the DSF result under setting [1] is “***** (>2.5° C.=*****)”.

Take `Cc1cc(N2CC[C@](C)(c3ccccc3)C2)cn2nc(C34CC(N5CC6C(C5)C6C(=O)O)(CO3)C4)nc12` (some centres unmarked) [Compound 63]: the DSF entry under setting [1] is given as “***** (>2.5° C.=*****)”.

As for `Cc1cc(N2CC[C@](C)(c3ccccc3)C2)cn2nc(C34CCC(N)(CC3)CO4)nc12` [Compound 64], the DSF result under setting [1] is listed as “***** (>2.5° C.=*****)”.

On to `Cc1cc(N2CC[C@](C)(c3ccccc3)C2)cn2nc(C34CC(CN)(C3)OC4(C)C)nc12` [Compound 65], for which the DSF result under setting [1] is listed as “**** (>1.5-2.5° C.=****)”.

Take `Cc1cc(N2CC[C@](C)(c3ccccc3)C2)cn2nc(C34CCC(N)(CO3)C4)nc12` (some centres unmarked) [Compound 66]: the DSF entry under setting [1] is given as “***** (>2.5° C.=*****)”.

For the compound `Cc1cc(N2CC[C@](C)(c3ccccc3)C2)cn2nc([C@@]34CO[C@@H](C3)C(N)C4)nc12` (some centres unmarked) [Compound 67], the DSF entry under setting [1] was “**** (>1.5-2.5° C.=****)”.

Turning to `Cc1cc(N2CC[C@](C)(c3ccccc3)C2)cn2nc([C@]34CO[C@H](C3)C(N)C4)nc12` (some centres unmarked) [Compound 68], the DSF result under setting [1] was “**** (>1.5-2.5° C.=****)”.
